What all share (test): NCI-60 cell line screen, 48 h
In test [1] the test system is T-47D breast.
Test [2] concerns MOLT-4 leukemia.
For test [3], the system named is SNB-75 CNS.
Test [4] relates to RPMI-8226 leukemia.
For test [5], the system named is MDA-MB-435.
In test [6] the test system is HT29 colon.
Test [7] concerns EKVX NSCLC.
Test [8] deals with OVCAR-5 ovarian.
Test [9] relates to SK-MEL-28 melanoma.
For test [10], the system named is HS 578T breast.

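Briefly, cells in 96-well plates were exposed to five compound concentrations for 48 h, and endpoints were estimated by linear interpolation. At the GI50, growth is halved. At the TGI there is no net growth.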

Consider `O=C(CC1(O)C(=O)Nc2c(Cl)ccc(Cl)c21)c1ccc(C2CC2)cc1` (centres undefined), for which the GI50 in [1] was 1.56 µM; in test [2], 1.19 µM; in test [3], 1.99 µM; in test [4] it was 0.87 µM; in [5] it was 0.0882 µM; in test [6], 0.586 µM. Also, the GI50 in [7] was 2.15 µM; in [8] it was 2.05 µM; in [9] it was 2.51 µM; in test [10] it was 1.83 µM. Moreover, the TGI in test [1] came to 27.1 µM; in test [2], 18.1 µM; in [3], 9.33 µM; in test [4], 16.5 µM; in test [5], 0.272 µM; in test [6], 2.22 µM. Further, the TGI in test [7] was 20.7 µM; in test [8] it was 16.8 µM; in test [9] it was 21.9 µM; in test [10] it was 8.58 µM.
Regarding `O=C(Nc1ccc(S(=O)(=O)NC2CCCCCC2)cc1)C(c1ccccc1)S(=O)(=O)c1ccc(F)cc1` (centres undefined), the GI50 in test [1] was 0.717 µM; in [2], 0.432 µM; in test [3] it was 0.508 µM; in test [5], 0.313 µM; in test [6] it was 0.214 µM; in test [7], 0.377 µM. Further, the GI50 was 0.374 µM in [8], 0.245 µM in [9] and 0.588 µM in [10]. Also, the TGI was 4.83 µM in test [1]; above 100 µM in [2]; 2.17 µM in test [3]; 1.43 µM in test [5]; 1.56 µM in test [6]; 2.95 µM in [7]. The TGI in test [8] is 3.15 µM; in test [9] it was 1.02 µM; in [10] it was 3.05 µM.
As to `COc1cc(/C=C/C(=O)c2ccc(Nc3nc(Nc4ccccc4)nc(Nc4ccc(Cl)cc4)n3)cc2)cc(OC)c1OC`, the GI50 in test [1] is 3.03 µM; in test [2] it was 2.65 µM; in test [3], 6.05 µM; in test [4], 2.21 µM; in test [5] it was 11.3 µM; in test [6] it was 5.39 µM. In addition, the GI50 was 24.1 µM in test [7], 10.4 µM in test [8], 14.5 µM in [9] and 15.2 µM in test [10]. Moreover, the TGI in test [1] was above 32.5 µM; in test [2] it was above 32.5 µM; in [3] it was above 32.5 µM; in [4], 20.9 µM; in [5], above 32.5 µM; in test [6], above 32.5 µM. Moreover, the TGI in test [7], in [8], in test [9] and in test [10] was above 32.5 µM each time.
For `Cc1ccc(-c2cc(/C=N/O)on2)cc1`, the GI50 in test [1] was 29.5 µM; in test [2], 21.9 µM; in test [4], 36.9 µM; in test [5], 52.1 µM; in test [6], 48.4 µM; in test [7], 43.3 µM. Besides, the GI50 in [8], in test [9] and in test [10] was above 100 µM throughout. In addition, the TGI in test [1], in [2], in test [4], in [5], in [6] and in test [7] was above 100 µM in each case. Moreover, the TGI in test [8], in test [9] and in test [10] was above 100 µM throughout.
Turning to `COc1ccc(NC(=O)O[C@H]2[C@H](O[C@H]3[C@@H](O)COC(O[C@H]4C[C@H]5[C@@H]6CC=C7C[C@@H](O)CC[C@]7(C)[C@H]6CC[C@]5(C)[C@H]4[C@H](C)C(=O)CCC(C)C)[C@@H]3OC(C)=O)OC[C@@H](O)[C@@H]2O)cc1` (some centres undefined), the GI50 in test [1] was below 0.01 µM; in test [2], below 0.01 µM; in test [3], below 0.01 µM; in [4], below 0.01 µM; in [5] it was below 0.01 µM; in [6], 0.0242 µM. Besides, the GI50 in test [7] was 0.349 µM; in [8] it was 0.169 µM; in test [9] it was below 0.01 µM; in test [10], below 0.01 µM. Moreover, the TGI in test [1] turned out to be 14.7 µM; in [2] it was 0.34 µM; in test [3], 6.88 µM; in test [4] it was 0.879 µM; in test [5] it was 0.0628 µM; in [6], 15.5 µM. Also, the TGI in [7] was 11.2 µM; in test [8], 26.2 µM; in test [9] it was 0.0127 µM; in [10], 0.0116 µM.
Take `OC(c1ccccc1)c1c(-c2ccccc2)oc(-c2ccccc2)c1C(O)c1ccccc1` (centres undefined): the TGI in [1] turned out to be 23.3 µM; in test [2], 22 µM; in [4] it was 14 µM; in test [5], 21.1 µM; in test [6], 23.1 µM; in test [7], 19.6 µM. For the same molecule, the TGI in [8] amounted to 32.6 µM; in [9] it was 27.9 µM; in test [10], 52.7 µM.
Take `C/C(=N\Nc1cccc(Cl)n1)c1ccccn1`: the GI50 in [1] was 1.09 µM; in test [2], 0.407 µM; in test [3], 2.28 µM; in [4], 0.615 µM; in test [5], 1.78 µM; in [6] it was 0.909 µM. In addition, the GI50 in [7] was 0.411 µM; in test [8], 0.819 µM; in [9], 1.65 µM; in [10] it was 5.08 µM. For the same molecule, the TGI in [1] was 13.1 µM; in test [2], above 100 µM; in [3], above 56.9 µM; in [4] it was 8.28 µM; in test [5] it was above 100 µM; in [6], above 100 µM. Moreover, the TGI was 18.6 µM in test [7], above 100 µM in [8], above 100 µM in test [9] and above 100 µM in test [10].
Take `c1cnc2c(c1)Nc1cnncc1S2`: the TGI in [1] is above 100 µM; in [2], above 100 µM; in test [3], 97.8 µM; in test [4], above 100 µM; in [5], above 100 µM; in test [6] it was above 100 µM. Further, the TGI in test [7], in test [8], in [9] and in [10] was above 100 µM in each case.
For `O=C1c2cccc3cc([N+](=O)[O-])cc(c23)C(=O)N1O`, the TGI in test [1], in test [2], in test [4], in test [5], in test [6] and in [7] was above 100 µM in each case. Besides, the TGI in [8], in test [9] and in test [10] was above 100 µM throughout.

The values above are taken from PubChem BioAssay (NCI).
